Reference: patent US10568852B2, “Combination compositions and their use in methods for treating obesity and obesity-related disorders” (Helmholtz Zentrum Munchen—Deutsches Forschungszentrum fur …, priority 2015, dated 2020)

Columns and labels:
DIO male mice [1] = assay: Body weight of diet-induced obese mice under daily subcutaneous treatment; type: in vivo; conditions: daily subcutaneous injections, vs vehicle
Experimental: (§1) Six- to eight-week-old male C57Bl/6 mice were given ad libitum access to a high-fat, high-sugar diet comprising 58% kcal fat (D12331; Research Diets, New Brunswick, N.J.). The mice had free access to water and were maintained at 23±1° C., constant humidity and on a 12-h light-dark cycle. Mice were maintained under these conditions for a minimum of 20 weeks before study initiation. At study start, mice were randomized into groups matched for body weight and body composition. Compounds were administered subcutaneously 1 h before the onset of the dark phase. Co-administration of compounds was administered by single formulated injections. Assessment of energy intake, energy expenditure and home-cage activity were performed using an indirect calorimetry system (TSE Phenotmaster, TSE Systems, Bad Homburg, Germany).
To assess the effect of icilin alone on the body weight and food intake, DIO male mice were treated 16 days with vehicle (control) or icilin (0.6 mg/kg or 6 mg/kg). […] Compounds were administered by daily subcutaneous injections.
To assess the effect of the combination therapy on the body weight, DIO male mice were treated 4 days with vehicle (control), DMPP alone (10 mg/kg), icilin alone (5 mg/kg) or DMPP (10 mg/ml)+icilin (5 mg/kg). Compounds were administered by daily subcutaneous injections. […]

DIO male mice [2] = assay: Glucose tolerance (intraperitoneal glucose challenge) in DIO mice; type: in vivo; conditions: 7-days treatment, daily subcutaneous injections, vs vehicle
Experimental: We also investigated the effect of DMPP alone on glucose tolerance and area under the curve (AUC). Glucose tolerance was assessed following 7-days treatment of DIO male mice with vehicle (control) or DMPP (1 mg/kg, 5 mg/kg or 10 mg/ml). Compounds were administered by daily subcutaneous injections.
Glucose tolerance was assessed following 7-days treatment of DIO male mice with vehicle (control) or icilin (6 mg/kg). […] Compounds were administered by daily subcutaneous injections.
Glucose tolerance was assessed following 7-days treatment of DIO male mice with vehicle (control), DMPP alone (10 mg/kg), icilin alone (5 mg/kg) or DMPP (10 mg/ml)+icilin (5 mg/kg). Compounds were administered by daily subcutaneous injections.

DIO male mice [3] = conditions: 14 days, DMPP 1 mg/kg, 5 mg/kg or 10 mg/ml, daily subcutaneous injections, vs vehicle
Experimental: as §1
To assess the effect of DMPP alone on the body weight and food intake, diet-induced obese (DIO) male mice were treated 14 days with vehicle (control) or DMPP (1 mg/kg, 5 mg/kg or 10 mg/ml). Compounds were administered by daily subcutaneous injections.

DIO male mice [4] = assay: Energy expenditure (indirect calorimetry) in DIO mice; type: in vivo; conditions: 5-days treatment, icilin 6 mg/kg, daily subcutaneous injections, vs vehicle
Experimental: To assess the effect of icilin alone on the body weight and food intake, DIO male mice were treated 16 days with vehicle (control) or icilin (0.6 mg/kg or 6 mg/kg). The results of these treatments are shown in FIGS. 3(A) and 3(B) (control: white circle; icilin: 0.6 mg/kg (star) or 6 mg/kg (black circle)). The effect on energy expenditure was investigated by a 5-days treatment of DIO male mice with vehicle (control) or icilin (6 mg/kg). Compounds were administered by daily subcutaneous injections. The results of these treatments are shown in FIG. 3(C) (control: white bar; icilin: black bar).

DIO male mice [5] = assay: Fasting glucose in DIO mice; type: in vivo; conditions: 23-days treatment, icilin 6 mg/kg, daily subcutaneous injections, vs vehicle
Experimental: Glucose tolerance was analyzed in 6 h fasted mice, following an intraperitoneal challenge with 1.5 g glucose per kg body weight. Glucose levels were measured in blood sampled from the tail veins before (0 min) and at 15, 30, 60 and 120 min post injection. To measure glucose-stimulated insulin secretion blood was collected from tail veins into EDTA-coated microvette tubes (Sarstedt) at time points 0, 15 and 60 min post glucose injection. Insulin sensitivity was assessed in 6 h fasted mice following an intraperitoneal injection of 0.7 U of insulin (Actrapid) per kg body weight. Blood glucose levels were measured before (0 min) and at 15, 30, 60 and 120 minutes after the insulin injection. Insulin was measured with commercially available kit (ALPCO Diagnostics, Salem, N.H.) per the manufacturer's instructions.
Glucose tolerance was assessed following 7-days treatment of DIO male mice with vehicle (control) or icilin (6 mg/kg). The results are shown in FIG. 3(D) (control: white; icilin: black). Fasting glucose was assessed following 23-days treatment of DIO male mice with vehicle (control) or icilin (6 mg/kg). Compounds were administered by daily subcutaneous injections. The results are shown in FIG. 3(E) (control: white bar; icilin: black bar).

SMILES | effect on body weight (DIO male mice [1]; 14 days, DMPP 1 mg/kg, 5 mg/kg or 10 mg/ml) | effect on glucose tolerance and area under the curve (AUC) (DIO male mice [2]; DMPP 1 mg/kg, 5 mg/kg or 10 mg/ml) | effect on food intake (DIO male mice [3]) | effect on body weight (DIO male mice [1]; 16 days, icilin 0.6 mg/kg or 6 mg/kg) | effect on glucose tolerance (DIO male mice [2]; icilin 6 mg/kg) | effect on energy expenditure (DIO male mice [4]) | effect on fasting glucose (DIO male mice [5])
C[N+]1(C)CCN(c2ccccc2)CC1 [DMPP, dimethylphenylpiperazinium] | dose-dependent weight lowering effect | dose-dependent improvement in glucose tolerance | reduction in food intake |  |  |  | 
O=C1NC(c2cccc([N+](=O)[O-])c2)=CCN1c1ccccc1O [icilin, 3-(2-hydroxyphenyl)-6-(3-nitrophenyl)-3,4-dihydropyrimidin-2(1H)-one] |  |  |  | dose-dependent weight loss | does not lead to a short term improvement in glucose tolerance | increased energy expenditure | improved fasting glucose levels
